≈ marks a conversion by molar mass, not a printed value. One block for each molecule: values may come before it.
Columns and labels:
Assay in all cases: ≥ marks a high value that may be exact or a test limit, other limits are often not marked, values filed in µg/mL are converted to µM
[1] = system: Streptococcus mutans UA159
[2] = system: Streptococcus sanguinis ATCC 10556
[3] = system: Lacticaseibacillus casei ATCC 393
[4] = system: Actinomyces viscosus ATCC 15987
[5] = system: Actinomyces naeslundii ATCC 12104
[6] = system: Lactobacillus acidophilus ATCC 14931
[7] = system: Limosilactobacillus fermentum ATCC 9338
[8] = system: Streptococcus gordonii DL1
[9] = system: Streptococcus sobrinus ATCC 6715
[10] = system: Staphylococcus aureus USA 300
[11] = system: Staphylococcus epidermidis ATCC 12228
[12] = system: Candida albicans ATCC 64550
[13] = system: Candida albicans ATCC 90028
[14] = system: Escherichia coli ATCC 25922
[15] = system: Staphylococcus aureus USA 100
[16] = system: Staphylococcus aureus ATCC 29737
[17] = system: Pseudomonas aeruginosa ATCC 9027
[18] = system: Staphylococcus aureus ATCC 700699
[19] = system: Bacillus subtilis ATCC 6633
[20] = system: Candida parapsilosis ATCC 22019
[21] = system: Staphylococcus aureus ATCC 33592
[22] = system: Cryptococcus neoformans
[23] = system: Sporothrix schenckii
[24] = system: Klebsiella pneumoniae ATCC 27736
[25] = system: Staphylococcus aureus ATCC 700698
[26] = system: Escherichia coli ATCC 9637
[27] = system: Pseudomonas aeruginosa ATCC BAA-427
[28] = system: Candida albicans ATCC 10231
[29] = system: Staphylococcus aureus ATCC BAA-44
[30] = system: Staphylococcus aureus ATCC 25923
[31] = system: Staphylococcus aureus ATCC 29213
[32] = system: Pseudomonas aeruginosa 213
[33] = system: Candida albicans C627
[34] = system: Pseudomonas aeruginosa H103
[35] = system: Pseudomonas aeruginosa LES400
[36] = system: Enterococcus faecium mic80
[37] = system: Escherichia coli ESBL 63103
[38] = system: Staphylococcus aureus C623
[39] = system: Listeria fleischmannii DSM 24998
[40] = system: Listeria monocytogenes DSM 20600
[41] = system: Escherichia coli D31
[42] = system: Listeria grayi DSM 20601
[43] = system: Micrococcus luteus DSM 20030
[44] = system: Streptococcus pneumoniae ATCC 49619
[45] = system: Pseudomonas aeruginosa ATCC 27853
[46] = system: Mycobacterium tuberculosis mc2-6230
[47] = system: Streptococcus pyogenes
[48] = system: Klebsiella pneumoniae
[49] = system: Mycobacterium tuberculosis mc2-6020
[50] = system: Streptococcus mutans
[51] = system: Bacillus subtilis BGSC 1A1
[52] = system: Streptococcus agalactiae

MIC [10]: 6.25 µM (≈ 6.84 µg/mL)
MIC [11]: 3.56 µM (≈ 3.9 µg/mL)
MIC [12]: 12.5 µM (≈ 13.7 µg/mL)
MIC [13]: 6.25 µM (≈ 6.84 µg/mL)
MIC [14]: 7.12 µM (≈ 7.79 µg/mL)
MIC [15]: 6.25 µM (≈ 6.84 µg/mL)
MIC [16]: 28.6 µM (≈ 31.3 µg/mL)
MIC [17]: 6.25 µM (≈ 6.84 µg/mL)
Structure (SMILES): CC[C@H](C)[C@H](N)C(=O)N[C@@H](CCCN=C(N)N)C(=O)N[C@H](C(=O)N[C@@H](CCCN=C(N)N)C(=O)N[C@H](C(=O)N[C@@H](CCCN=C(N)N)C(=O)N[C@H](C(=O)N[C@@H](CCCN=C(N)N)C(N)=O)[C@@H](C)CC)[C@@H](C)CC)[C@@H](C)CC [IRIRIRIR]

MIC [32]: ≥ 88.6 µM
MIC [33]: 5.54 µM (≈ 8 µg/mL)
MIC [34]: 22.1 µM (≈ 32 µg/mL)
MIC [35]: ≥ 44.3 µM
MIC [36]: 22.1 µM (≈ 32 µg/mL)
MIC [37]: ≥ 44.3 µM
MIC [30]: 11.1 µM (≈ 16 µg/mL)
MIC [38]: 11.1 µM (≈ 16 µg/mL)
Structure (SMILES): CC[C@H](C)[C@H](NC(=O)[C@H](CCCCN)NC(=O)[C@H](Cc1c[nH]c2ccccc12)NC(=O)[C@H](Cc1c[nH]c2ccccc12)NC(=O)[C@@H](N)CCCCN)C(=O)N[C@@H](Cc1c[nH]c2ccccc12)C(=O)N[C@@H](CCCN=C(N)N)C(=O)N[C@@H](Cc1c[nH]c2ccccc12)C(=O)N[C@@H](CCCN=C(N)N)C(=O)O [KWWKIWRWR]

Continued, molecule first:

Structure (SMILES): CC(C)C[C@H](NC(=O)CN)C(=O)N[C@@H](CC(C)C)C(=O)N[C@@H](Cc1c[nH]c2ccccc12)C(=O)N[C@@H](Cc1cnc[nH]1)C(=O)N[C@@H](CC(C)C)C(=O)N[C@@H](CC(C)C)C(=O)N[C@@H](Cc1cnc[nH]1)C(N)=O [GLLWHLLH]
MIC [1]: ≥ 259 µM
MIC [2]: ≥ 518 µM
MIC [3]: ≥ 64.8 µM
MIC [4]: ≥ 32.4 µM
MIC [5]: ≥ 130 µM
MIC [6]: ≥ 130 µM
MIC [7]: ≥ 130 µM
MIC [8]: ≥ 518 µM

Structure (SMILES): NCCCC[C@H](NC(=O)[C@H](Cc1c[nH]c2ccccc12)NC(=O)[C@H](CCCCN)NC(=O)[C@H](CCCCN)NC(=O)[C@H](Cc1ccccc1)NC(=O)[C@H](Cc1ccccc1)NC(=O)[C@H](CCCCN)NC(=O)[C@H](CCCCN)NC(=O)[C@H](Cc1ccccc1)NC(=O)[C@H](Cc1ccccc1)NC(=O)[C@H](CCCCN)NC(=O)[C@@H](N)Cc1ccccc1)C(=O)O [FKFFKKFFKKWK]
MIC [1]: 9.36 µM (≈ 16 µg/mL)
MIC [2]: 18.7 µM (≈ 32 µg/mL)
MIC [9]: 18.7 µM (≈ 32 µg/mL)

Structure (SMILES): CC[C@H](C)[C@H](NC(=O)[C@H](C)NC(=O)CNC(=O)[C@H](CCCCN)NC(=O)[C@@H](NC(=O)[C@H](CC(C)C)NC(=O)[C@H](Cc1c[nH]c2ccccc12)NC(=O)CNC(=O)[C@H](Cc1ccccc1)NC(=O)[C@@H](N)Cc1ccccc1)[C@@H](C)CC)C(=O)N[C@@H](Cc1cnc[nH]1)C(=O)N[C@@H](C)C(=O)NCC(=O)N[C@@H](CCCCN)C(=O)N[C@@H](C)C(=O)N[C@H](C(=O)N[C@@H](Cc1cnc[nH]1)C(=O)N1CCC[C@H]1C(=O)N[C@@H](CC(C)C)C(=O)N[C@H](C(=O)N[C@@H](Cc1cnc[nH]1)C(=O)N[C@@H](CCCN=C(N)N)C(=O)N[C@@H](CCCN=C(N)N)C(=O)N[C@@H](CCCN=C(N)N)C(=O)N[C@@H](Cc1cnc[nH]1)C(=O)O)[C@@H](C)CC)[C@@H](C)CC [FFGWLIKGAIHAGKAIHPLIHRRRH]
MIC [18]: 3 µM (≈ 8.8 µg/mL)
MIC [19]: 3 µM (≈ 8.8 µg/mL)
MIC [20]: 13.6 µM (≈ 39.9 µg/mL)
MIC [21]: 1.6 µM (≈ 4.69 µg/mL)
MIC [22]: 13.6 µM (≈ 39.9 µg/mL)
MIC [23]: 27.2 µM (≈ 79.8 µg/mL)
MIC [24]: 13.6 µM (≈ 39.9 µg/mL)
MIC [25]: 3 µM (≈ 8.8 µg/mL)
MIC [26]: 3 µM (≈ 8.8 µg/mL)
MIC [27]: 6.8 µM (≈ 19.9 µg/mL)
MIC [28]: 13.6 µM (≈ 39.9 µg/mL)
MIC [29]: 3 µM (≈ 8.8 µg/mL)
MIC [30]: 3 µM (≈ 8.8 µg/mL)
MIC [31]: 6.8 µM (≈ 19.9 µg/mL)

Structure (SMILES): CC[C@H](C)[C@H](NC(=O)[C@H](C)NC(=O)[C@H](CCCCN)NC(=O)[C@H](CCCCN)NC(=O)[C@@H](NC(=O)CNC(=O)[C@H](CCC(=O)O)NC(=O)[C@H](CC(C)C)NC(=O)[C@H](CC(C)C)NC(=O)[C@H](CCCCN)NC(=O)CNC(=O)[C@H](Cc1c[nH]c2ccccc12)NC(=O)[C@H](Cc1ccccc1)NC(=O)CN)C(C)C)C(N)=O [GFWGKLLEGVKKAI]
MIC [39]: 15 µM (≈ 23.2 µg/mL)
MIC [40]: 15 µM (≈ 23.2 µg/mL)
MIC [41]: 15 µM (≈ 23.2 µg/mL)
MIC [42]: 8 µM (≈ 12.4 µg/mL)
MIC [43]: 8 µM (≈ 12.4 µg/mL)

Structure (SMILES): CC[C@H](C)[C@H](N)C(=O)N[C@@H](CC(C)C)C(=O)N[C@@H](CO)C(=O)N[C@@H](CC(C)C)C(=O)N[C@@H](CCCN=C(N)N)C(=O)N[C@@H](Cc1c[nH]c2ccccc12)C(=O)N[C@@H](CCCN=C(N)N)C(=O)N[C@@H](Cc1c[nH]c2ccccc12)C(=O)N[C@@H](Cc1c[nH]c2ccccc12)C(=O)N[C@@H](CCCCN)C(=O)N[C@@H](Cc1c[nH]c2ccccc12)C(=O)N[C@@H](CCCCN)C(=O)N[C@@H](CCCCN)C(=O)O [ILSLRWRWWKWKK]
MIC [44]: ≥ 32 µM
MIC [45]: 32 µM (≈ 60.4 µg/mL)
MIC [46]: ≥ 32 µM
MIC [47]: 4 µM (≈ 7.55 µg/mL)
MIC [14]: 8 µM (≈ 15.1 µg/mL)
MIC [48]: 32 µM (≈ 60.4 µg/mL)
MIC [49]: 4 µM (≈ 7.55 µg/mL)
MIC [50]: 4 µM (≈ 7.55 µg/mL)
MIC [30]: 68 µM (≈ 128 µg/mL)
MIC [51]: 2 µM (≈ 3.77 µg/mL)
MIC [52]: 4 µM (≈ 7.55 µg/mL)
